Patent US8785460B2, “Tricyclic compounds and use thereof” (Takeda Pharmaceutical Company Limited, priority 2008, dated 2014)

Columns and labels:
[1] = molecular target: T1, human CRF1 receptor (Homo sapiens, UniProt P34998); assay: Measurement of CRF Binding Inhibitory Rate (receptor binding experiment with 125I-CRF); details: human CRF1 receptor expressing CHO cellular membrane fraction, 50 pM 125I-CRF, room temperature 1.5 hr, 0.05 nM to 10 μM of compound; read-out: IC50 values (CRF binding inhibition)
T1 construct: expressed in transfected cells; host or cells: CHO cells (membrane fraction)
T1 sequence (P34998 24-415): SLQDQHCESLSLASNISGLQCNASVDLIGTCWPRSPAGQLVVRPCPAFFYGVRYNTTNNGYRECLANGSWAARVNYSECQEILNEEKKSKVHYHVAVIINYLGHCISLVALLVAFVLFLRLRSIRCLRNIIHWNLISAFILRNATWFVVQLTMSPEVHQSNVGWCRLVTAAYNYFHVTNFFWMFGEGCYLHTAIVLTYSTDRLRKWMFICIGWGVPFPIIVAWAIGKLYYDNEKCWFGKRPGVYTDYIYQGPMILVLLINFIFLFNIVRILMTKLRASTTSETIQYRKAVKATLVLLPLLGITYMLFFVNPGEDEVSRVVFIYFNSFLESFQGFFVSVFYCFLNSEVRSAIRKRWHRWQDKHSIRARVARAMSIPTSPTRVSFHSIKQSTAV

Compound	melting point [°C]	IC50 [1] [µM]
Cc1nc(C(C)C)nc(C)c1N1CCCn2c1nc1c(Cl)ccc(C(OC(F)F)C(F)(F)F)c12 (centres unmarked) [Example 214, 9-Chloro-6-[1-(difluoromethoxy)-2,2,2-trifluoroethyl]-1-[4,6-dimethyl-2-(1-methylethyl)pyrimidin-5-yl]-1,2,3,4-tetrahydropyrimido[1,2-a]benzimidazole]	204 to 206	< 1
CCC(CC)c1ccc(Cl)c2nc3n(c12)CCCN3c1cnc(N(C)C)cc1C [Example 336, 5-[9-Chloro-6-(1-ethylpropyl)-3,4-dihydropyrimido[1,2-a]benzimidazol-1(2H)-yl]-N,N,4-trimethylpyridin-2-amine]	228 to 230	< 1
CCN(CC)c1cccc2nc3n(c12)CC(F)(F)CN3c1ccc(Cl)cc1Cl [Example 231, 1-(2,4-Dichlorophenyl)-N,N-diethyl-3,3-difluoro-1,2,3,4-tetrahydropyrimido[1,2-a]benzimidazol-6-amine]	125 to 127	< 1
CCCC(O)(CCC)c1ccc(Cl)c2nc3n(c12)CCCN3c1c(C)cc(Cl)cc1Cl [Example 139, 4-[9-Chloro-1-(2,4-dichloro-6-methylphenyl)-1,2,3,4-tetrahydropyrimido[1,2-a]benzimidazol-6-yl]heptan-4-ol]	176 to 178	< 1
CCC(CC)c1ccc(Cl)c2nc3n(c12)CCCCN3c1cnc(C#N)cc1C [Example 59, 5-[10-Chloro-7-(1-ethylpropyl)-2,3,4,5-tetrahydro-1H-[1,3]diazepino[1,2-a]benzimidazol-1-yl]-4-methylpyridine-2-carbonitrile]	177 to 178	< 1
OC(c1ccc(Cl)c2nc3n(c12)CCCN3c1ccc(Cl)cc1Cl)(C1CC1)C1CC1 [Example 108, [9-Chloro-1-(2,4-dichlorophenyl)-1,2,3,4-tetrahydropyrimido[1,2-a]benzimidazol-6-yl](dicyclopropyl)methanol]	184 to 186	< 1
COc1ccc(N2CCCn3c2nc2c(Cl)ccc(C(OCC(F)(F)F)C4CC4)c23)c(C)c1 (centres unmarked) [Example 353, 9-Chloro-6-[cyclopropyl(2,2,2-trifluoroethoxy)methyl]-1-(4-methoxy-2-methylphenyl)-1,2,3,4-tetrahydropyrimido[1,2-a]benzimidazole]	157 to 158	< 1
CCNC(=O)NC(CC)c1ccc(Cl)c2nc3n(c12)CCCN3c1ccc(Cl)cc1Cl (centres unmarked) [Example 374, 1-{1-[9-Chloro-1-(2,4-dichlorophenyl)-1,2,3,4-tetrahydropyrimido[1,2-a]benzimidazol-6-yl]propyl}-3-ethylurea]	250 to 252	< 1
COC(c1ccc(Cl)c2nc3n(c12)CCCN3c1ccc(Cl)cc1Cl)(C1CC1)C1CC1 [Example 111, 9-Chloro-1-(2,4-dichlorophenyl)-6-[dicyclopropyl(methoxy)methyl]-1,2,3,4-tetrahydropyrimido[1,2-a]benzimidazole]	99 to 100	< 1
COC(c1ccc(Cl)c2nc3n(c12)CCCN3c1ccc(Cl)cc1Cl)C1CC1 (centres unmarked) [Example 117, 9-Chloro-6-[cyclopropyl(methoxy)methyl]-1-(2,4-dichlorophenyl)-1,2,3,4-tetrahydropyrimido[1,2-a]benzimidazole]	138 to 139	< 1
Cc1nc(C#N)ccc1N1CCCn2c1nc1c(Cl)ccc(C(OC(F)F)C(F)(F)F)c12 (centres unmarked) [Example 292, 5-{9-Chloro-6-[1-(difluoromethoxy)-2,2,2-trifluoroethyl]-3,4-dihydropyrimido[1,2-a]benzimidazol-1(2H)-yl}-6-methylpyridine-2-carbonitrile]	177 to 180	< 1
CCC(O)c1ccc(Cl)c2nc3n(c12)CCCN3c1ccc(Cl)cc1C(F)(F)F (centres unmarked) [Example 131, 1-{9-Chloro-1-[4-chloro-2-(trifluoromethyl)phenyl]-1,2,3,4-tetrahydropyrimido[1,2-a]benzimidazol-6-yl}propan-1-ol]	220 to 222	< 1
CCC(O)c1ccc(Cl)c2nc3n(c12)CCCN3c1c(Cl)cc(OC)cc1Cl (centres unmarked) [Example 394, 1-[9-Chloro-1-(2,6-dichloro-4-methoxyphenyl)-1,2,3,4-tetrahydropyrimido[1,2-a]benzimidazol-6-yl]propan-1-ol]	206 to 208	< 1
CCC(CC)c1ccc(Cl)c2nc3n(c12)C(Cl)(Cl)C(=O)N3c1c(C)cc(Cl)cc1OC [Example 11, 3,3,8-Trichloro-1-(4-chloro-2-methoxy-6-methylphenyl)-5-(1-ethylpropyl)-1H-imidazo[1,2-a]benzimidazol-2(3H)-one]	190 to 192	< 1
CCC(CC)c1ccc(Cl)c2nc3n(c12)CCCCN3c1ccc(C(=O)N(C)C)cc1C [Example 50, 4-[10-Chloro-7-(1-ethylpropyl)-2,3,4,5-tetrahydro-1H-[1,3]diazepino[1,2-a]benzimidazol-1-yl]-N,N,3-trimethylbenzamide]	113 to 114	< 1
CCN(CC)c1cccc2nc3n(c12)CC(O)CCN3c1ccc(Cl)cc1Cl (centres unmarked) [Example 70, 1-(2,4-Dichlorophenyl)-7-(diethylamino)-2,3,4,5-tetrahydro-1H-[1,3]diazepino[1,2-a]benzimidazol-4-ol]	207 to 208	< 1
CCC(O)(CC)c1ccc(Cl)c2nc3n(c12)CCCN3c1ccc(Cl)cc1Cl [Example 107, 3-[9-Chloro-1-(2,4-dichlorophenyl)-1,2,3,4-tetrahydropyrimido[1,2-a]benzimidazol-6-yl]pentan-3-ol]	199 to 201	< 1
CCC(CC)c1ccc(Cl)c2nc3n(c12)CCCCN3c1cnc(OC)cc1C [Example 30, 10-Chloro-7-(1-ethylpropyl)-1-(6-methoxy-4-methylpyridin-3-yl)-2,3,4,5-tetrahydro-1H-[1,3]diazepino[1,2-a]benzimidazole]	112 to 114	< 1
COc1ccc(N2CCCn3c2nc2c(Cl)ccc(C(OCC(F)(F)F)C4CC4)c23)c(C)n1 (centres unmarked) [Example 277, 9-Chloro-6-[cyclopropyl (2,2,2-trifluoroethoxy)methyl]1-(6-methoxy-2-methylpyridin-3-yl)-1,2,3,4-tetrahydropyrimido[1,2-a]benzimidazole]	158 to 160	< 1
Cc1cnc(N2CCCn3c2nc2c(Cl)ccc(C(O)(C4CC4)C4CC4)c23)c(C)n1 [Example 176, [9-Chloro-1-(3,5-dimethylpyrazin-2-yl)-1,2,3,4-tetrahydropyrimido[1,2-a]benzimidazol-6-yl](dicyclopropyl)methanol]	152 to 153	< 1
CCN(CC)c1cccc2nc3n(c12)CC(N)CCN3c1ccc(Cl)cc1Cl (centres unmarked) [Example 363, 1-(2,4-Dichlorophenyl)-N^7,N^7-diethyl-2,3,4,5-tetrahydro-1H-[1,3]diazepino[1,2-a]benzimidazole-4,7-diamine]	149 to 151	< 1
COc1ccc(N2CCCn3c2nc2c(Cl)ccc(C(OC)C(F)(F)F)c23)c(C)n1 (centres unmarked) [Example 280, 9-Chloro-1-(6-methoxy-2-methylpyridin-3-yl)-6-(2,2,2-trifluoro-1-methoxyethyl)-1,2,3,4-tetrahydropyrimido[1,2-a]benzimidazole]	144 to 146	< 1
CCC(CC)c1ccc(Cl)c2nc3n(c12)CCCCN3c1ccc(Cl)cc1 [Example 23, 10-Chloro-1-(4-chlorophenyl)-7-(1-ethylpropyl)-2,3,4,5-tetrahydro-1H-[1,3]diazepino[1,2-a]benzimidazole]	133 to 135	< 1
CCOC(c1ccc(Cl)c2nc3n(c12)CCCN3c1ccc(Cl)cc1Cl)C1CC1 (centres unmarked) [Example 483, 9-Chloro-6-[cyclopropyl(ethoxy)methyl]-1-(2,4-dichlorophenyl)-1,2,3,4-tetrahydropyrimido[1,2-a]benzimidazole]	138 to 140	< 1
CCC(CC)c1ccc(Cl)c2nc3n(c12)CCCCN3c1ncc(S(C)(=O)=O)cc1C [Example 341, 10-Chloro-7-(1-ethylpropyl)-1-[3-methyl-5-(methylsulfonyl)pyridin-2-yl]-2,3,4,5-tetrahydro-1H-[1,3]diazepino[1,2-a]benzimidazole]	137 to 139	< 1
CCC(OC)c1ccc(Cl)c2nc3n(c12)CCCN3c1ccc(Cl)cc1C(F)(F)F (centres unmarked) [Example 133, 9-Chloro-1-[4-chloro-2-(trifluoromethyl)phenyl]-6-(1-methoxypropyl)-1,2,3,4-tetrahydropyrimido[1,2-a]benzimidazole]	202 to 203	< 1
CCC(CC)c1ccc(Cl)c2nc3n(c12)CC(C)N3c1cnc(N(C)C)cc1C (centres unmarked) [Example 78, 5-[8-Chloro-5-(1-ethylpropyl)-2-methyl-2,3-dihydro-1H-imidazo[1,2-a]benzimidazol-1-yl]-N,N,4-trimethylpyridin-2-amine]	204 to 206	< 1
CCc1cc(CC)n(-c2ccc(Cl)c3nc4n(c23)CCCN4c2ccc(Cl)cc2Cl)n1 [Example 197, 9-Chloro-1-(2,4-dichlorophenyl)-6-(3,5-diethyl-1H-pyrazol-1-yl)-1,2,3,4-tetrahydropyrimido[1,2-a]benzimidazole]	185 to 187	< 1
